Source: PubChem BioAssay (NCI)
“And” between values parts separate entries of the source, which are not always exact repeats. Equal entries are not always repeated.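 96-well plates; 48 h exposure; 5 concentrations. Endpoints by linear interpolation between flanking doses. Not reached: highest tested concentration assigned. GI50: concentration for 50% inhibition of growth. Definition used: TGI = concentration required for complete inhibition of growth.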

How the values were obtained:
Assay in all cases: inhibition of tumour cell growth, NCI panel, 48 h
786-0 renal = system: 786-0 renal
A498 renal = system: A498 renal
HS 578T breast = system: HS 578T breast
M14 melanoma = system: M14 melanoma
MALME-3M melanoma = system: MALME-3M melanoma
NCI-H522 lung = system: NCI-H522 lung
SK-MEL-28 melanoma = system: SK-MEL-28 melanoma
SK-MEL-5 melanoma = system: SK-MEL-5 melanoma
SW-620 colon = system: SW-620 colon
UACC-257 melanoma = system: UACC-257 melanoma

For `CC1CCC2C(C)C3C(CC4C5CC=C6CC(OC7OC(CO)C(O)C(OC8OC(CO)C(O)C(O)C8O)C7OC7OC(C)C(O)C(O)C7O)CCC6(C)C5CCC43C)N2C1` (stereo unspecified), the GI50 (786-0 renal) was > 2.5 µg/mL, the TGI (786-0 renal) was 20.4 µM and > 2.5 µg/mL and the GI50 (A498 renal) was > 2.5 µg/mL. The TGI (A498 renal) was 31.7 µM and > 2.5 µg/mL, the GI50 (HS 578T breast) was > 2.5 µg/mL and the TGI (HS 578T breast) was 32.6 µM and > 2.5 µg/mL. The GI50 (M14 melanoma) was > 2.5 µg/mL, the TGI (M14 melanoma) was 9.84 µM and > 2.5 µg/mL and the GI50 (MALME-3M melanoma) was > 2.5 µg/mL. The TGI (MALME-3M melanoma) was 65.3 µM and > 2.5 µg/mL, the GI50 (NCI-H522 lung) was > 2.5 µg/mL and the TGI (NCI-H522 lung) was 35.2 µM and > 2.5 µg/mL. The GI50 (SK-MEL-28 melanoma) was > 2.5 µg/mL, the TGI (SK-MEL-28 melanoma) was 21.8 µM and > 2.5 µg/mL and the GI50 (SK-MEL-5 melanoma) was > 2.5 µg/mL. The TGI (SK-MEL-5 melanoma) was 33.3 µM and > 2.5 µg/mL, the GI50 (SW-620 colon) was > 2.5 µg/mL and the TGI (SW-620 colon) was 31.6 µM and > 2.5 µg/mL. The GI50 (UACC-257 melanoma) was > 2.5 µg/mL and the TGI (UACC-257 melanoma) was 33.2 µM and > 2.5 µg/mL.

`CCCCSCc1nc2nc(Cl)c(Cl)nc2[nH]1` was tested, and the TGI (786-0 renal) was 69.3 µM, the TGI (A498 renal) was 60.6 µM and the TGI (HS 578T breast) was > 100 µM. It also gave a TGI (M14 melanoma) of 66.6 µM, a TGI (MALME-3M melanoma) of 53.6 µM and a TGI (NCI-H522 lung) of 42.6 µM. For the same molecule, the TGI (SK-MEL-28 melanoma) was 71.9 µM, the TGI (SK-MEL-5 melanoma) was 28.8 µM and the TGI (SW-620 colon) was > 100 µM. For the same molecule, the TGI (UACC-257 melanoma) was 44.5 µM.

With `Cc1ccc2[nH]c(C(=O)NN3C(=O)CSC34CCCC(C)C4)c(-c3ccccc3)c2c1` (stereo unspecified) the GI50 (786-0 renal) was 19.6 µM, the TGI (786-0 renal) was 39.3 µM and the GI50 (A498 renal) was 17.5 µM. For the same molecule, the TGI (A498 renal) was 36.3 µM, the GI50 (HS 578T breast) was 28.2 µM and the TGI (HS 578T breast) was 68 µM. It also gave a GI50 (M14 melanoma) of 18.8 µM, a TGI (M14 melanoma) of 35.5 µM and a GI50 (MALME-3M melanoma) of 18.3 µM. The TGI (MALME-3M melanoma) was 34.7 µM, the GI50 (NCI-H522 lung) was 11.9 µM and the TGI (NCI-H522 lung) was 25.6 µM. It also gave a GI50 (SK-MEL-28 melanoma) of 19.7 µM, a TGI (SK-MEL-28 melanoma) of 37.6 µM and a GI50 (SK-MEL-5 melanoma) of 17.4 µM. It also gave a TGI (SK-MEL-5 melanoma) of 34.9 µM, a GI50 (SW-620 colon) of 25.6 µM and a TGI (SW-620 colon) of 67.1 µM. For the same molecule, the GI50 (UACC-257 melanoma) was 19.2 µM and the TGI (UACC-257 melanoma) was 35 µM.

For `O=C(NCCCNC(=O)OCc1ccc2c(Br)cc(Br)c(O)c2n1)OCc1ccc2c(Br)cc(Br)c(O)c2n1`, the GI50 (786-0 renal) was > 100 µM, the TGI (786-0 renal) was > 100 µM and the GI50 (A498 renal) was > 100 µM. The TGI (A498 renal) was > 100 µM, the GI50 (HS 578T breast) was > 100 µM and the TGI (HS 578T breast) was > 100 µM. The GI50 (M14 melanoma) was > 100 µM, the TGI (M14 melanoma) was > 100 µM and the GI50 (MALME-3M melanoma) was > 100 µM. For the same molecule, the TGI (MALME-3M melanoma) was > 100 µM, the GI50 (NCI-H522 lung) was > 100 µM and the TGI (NCI-H522 lung) was > 100 µM. For the same molecule, the GI50 (SK-MEL-28 melanoma) was > 100 µM, the TGI (SK-MEL-28 melanoma) was > 100 µM and the GI50 (SK-MEL-5 melanoma) was > 100 µM. For the same molecule, the TGI (SK-MEL-5 melanoma) was > 100 µM, the GI50 (SW-620 colon) was > 100 µM and the TGI (SW-620 colon) was > 100 µM. For the same molecule, the GI50 (UACC-257 melanoma) was > 100 µM and the TGI (UACC-257 melanoma) was > 100 µM.

With `COc1cc(-c2nn(C(=O)NS(=O)(=O)c3ccc(C)cc3)cc2-c2ccncc2)ccc1Cl` the GI50 (786-0 renal) was 3.47 µM, the TGI (786-0 renal) was 17.7 µM and the GI50 (A498 renal) was 6.98 µM. The TGI (A498 renal) was 39.6 µM, the GI50 (HS 578T breast) was 7.38 µM and the TGI (HS 578T breast) was > 100 µM. For the same molecule, the GI50 (M14 melanoma) was 3.6 µM, the TGI (M14 melanoma) was 14.2 µM and the GI50 (MALME-3M melanoma) was 4.14 µM. The TGI (MALME-3M melanoma) was 15.6 µM, the GI50 (NCI-H522 lung) was 10.4 µM and the TGI (NCI-H522 lung) was 26.7 µM. For the same molecule, the GI50 (SK-MEL-28 melanoma) was 3.51 µM, the TGI (SK-MEL-28 melanoma) was 13.1 µM and the GI50 (SK-MEL-5 melanoma) was 4.58 µM. For the same molecule, the TGI (SK-MEL-5 melanoma) was 17.1 µM, the GI50 (SW-620 colon) was 20.4 µM and the TGI (SW-620 colon) was > 100 µM. It also gave a GI50 (UACC-257 melanoma) of 12.1 µM and a TGI (UACC-257 melanoma) of 60.2 µM.

`COc1ccc(C2C(c3ccccc3)C(=O)N2c2cc(OC)c(OC)c(OC)c2)cc1I` (stereo unspecified) was tested, and the GI50 (786-0 renal) was 0.397 µM, the TGI (786-0 renal) was > 100 µM and the GI50 (A498 renal) was 0.241 µM. For the same molecule, the TGI (A498 renal) was 0.777 µM, the GI50 (HS 578T breast) was 0.435 µM and the TGI (HS 578T breast) was > 100 µM. The GI50 (M14 melanoma) was 0.301 µM, the TGI (M14 melanoma) was > 100 µM and the GI50 (MALME-3M melanoma) was > 100 µM. For the same molecule, the TGI (MALME-3M melanoma) was > 100 µM, the GI50 (NCI-H522 lung) was 0.276 µM and the TGI (NCI-H522 lung) was 0.887 µM. For the same molecule, the GI50 (SK-MEL-28 melanoma) was 2.31 µM, the TGI (SK-MEL-28 melanoma) was > 100 µM and the GI50 (SK-MEL-5 melanoma) was 0.224 µM. For the same molecule, the TGI (SK-MEL-5 melanoma) was 0.729 µM, the GI50 (SW-620 colon) was 0.423 µM and the TGI (SW-620 colon) was > 100 µM. For the same molecule, the GI50 (UACC-257 melanoma) was > 100 µM and the TGI (UACC-257 melanoma) was > 100 µM.

For `COc1ccc(/C(Cl)=C(\C=O)c2ccc(OC)c(OC)c2)cc1OC`, the TGI (786-0 renal) was > 100 µM, the TGI (A498 renal) was > 100 µM and the TGI (HS 578T breast) was > 100 µM. For the same molecule, the TGI (M14 melanoma) was > 100 µM, the TGI (MALME-3M melanoma) was > 100 µM and the TGI (NCI-H522 lung) was > 100 µM. For the same molecule, the TGI (SK-MEL-28 melanoma) was > 100 µM, the TGI (SK-MEL-5 melanoma) was > 100 µM and the TGI (SW-620 colon) was > 100 µM. For the same molecule, the TGI (UACC-257 melanoma) was > 66.3 µM.

`O=C1C(Cl)=C(Nc2cccc(C(F)(F)F)c2)C(=O)N1Cc1ccccc1Cl` was tested, and the GI50 (786-0 renal) was 1.78 µM, the TGI (786-0 renal) was 16.5 µM and the GI50 (A498 renal) was 5.06 µM. For the same molecule, the TGI (A498 renal) was 19.7 µM, the GI50 (HS 578T breast) was 8.34 µM and the TGI (HS 578T breast) was 43.5 µM. For the same molecule, the GI50 (M14 melanoma) was 6.21 µM, the TGI (M14 melanoma) was 19.1 µM and the GI50 (MALME-3M melanoma) was 1.54 µM. It also gave a TGI (MALME-3M melanoma) of 23.3 µM, a GI50 (NCI-H522 lung) of 0.49 µM and a TGI (NCI-H522 lung) of 19.8 µM. The GI50 (SK-MEL-28 melanoma) was 8.21 µM, the TGI (SK-MEL-28 melanoma) was 26.9 µM and the GI50 (SK-MEL-5 melanoma) was 2.79 µM. It also gave a TGI (SK-MEL-5 melanoma) of 14.7 µM, a GI50 (SW-620 colon) of 2.38 µM and a TGI (SW-620 colon) of 22.2 µM. For the same molecule, the GI50 (UACC-257 melanoma) was 13.7 µM and the TGI (UACC-257 melanoma) was 29.7 µM.

Molecule `BrC(Br)(Br)c1cnc2ccccc2n1` has a GI50 (786-0 renal) of 2.02 µM, a TGI (786-0 renal) of 5 µM and a GI50 (A498 renal) of 9 µM. For the same molecule, the TGI (A498 renal) was 21.2 µM, the GI50 (HS 578T breast) was 2.47 µM and the TGI (HS 578T breast) was 7 µM. For the same molecule, the GI50 (M14 melanoma) was 2.05 µM, the TGI (M14 melanoma) was 6.42 µM and the GI50 (MALME-3M melanoma) was 1.55 µM. For the same molecule, the TGI (MALME-3M melanoma) was 5.28 µM, the GI50 (NCI-H522 lung) was 0.544 µM and the TGI (NCI-H522 lung) was 1.28 µM. For the same molecule, the GI50 (SK-MEL-28 melanoma) was 1.85 µM, the TGI (SK-MEL-28 melanoma) was 4.24 µM and the GI50 (SK-MEL-5 melanoma) was 2.32 µM. For the same molecule, the TGI (SK-MEL-5 melanoma) was 7.54 µM, the GI50 (UACC-257 melanoma) was 2.02 µM and the TGI (UACC-257 melanoma) was 6.48 µM.

`COc1cc2nc(-c3ccc(-n4cncc4-c4ccc(N)cc4)cc3)sc2c(OC)c1OC` was tested, and the GI50 (786-0 renal) was 6.26 µM, the TGI (786-0 renal) was > 100 µM and the GI50 (A498 renal) was 2.13 µM. For the same molecule, the TGI (A498 renal) was > 100 µM, the GI50 (HS 578T breast) was 5.36 µM and the TGI (HS 578T breast) was 49.7 µM. The GI50 (M14 melanoma) was 2.1 µM, the TGI (M14 melanoma) was > 100 µM and the GI50 (MALME-3M melanoma) was 0.71 µM. The TGI (MALME-3M melanoma) was 6.44 µM, the GI50 (NCI-H522 lung) was 2.74 µM and the TGI (NCI-H522 lung) was 21.6 µM. The GI50 (SK-MEL-28 melanoma) was > 100 µM, the TGI (SK-MEL-28 melanoma) was > 100 µM and the GI50 (SK-MEL-5 melanoma) was 2.74 µM. For the same molecule, the TGI (SK-MEL-5 melanoma) was > 100 µM, the GI50 (UACC-257 melanoma) was 6.4 µM and the TGI (UACC-257 melanoma) was > 100 µM.
